The results in this text go back to patent US7173047B2, “Benzo (f) insoindol derivatives and their use as ep4 receptor ligands” (Glaxo Group Limited, priority 2000, dated 2007).

T1 sequence (P35408 whole entry): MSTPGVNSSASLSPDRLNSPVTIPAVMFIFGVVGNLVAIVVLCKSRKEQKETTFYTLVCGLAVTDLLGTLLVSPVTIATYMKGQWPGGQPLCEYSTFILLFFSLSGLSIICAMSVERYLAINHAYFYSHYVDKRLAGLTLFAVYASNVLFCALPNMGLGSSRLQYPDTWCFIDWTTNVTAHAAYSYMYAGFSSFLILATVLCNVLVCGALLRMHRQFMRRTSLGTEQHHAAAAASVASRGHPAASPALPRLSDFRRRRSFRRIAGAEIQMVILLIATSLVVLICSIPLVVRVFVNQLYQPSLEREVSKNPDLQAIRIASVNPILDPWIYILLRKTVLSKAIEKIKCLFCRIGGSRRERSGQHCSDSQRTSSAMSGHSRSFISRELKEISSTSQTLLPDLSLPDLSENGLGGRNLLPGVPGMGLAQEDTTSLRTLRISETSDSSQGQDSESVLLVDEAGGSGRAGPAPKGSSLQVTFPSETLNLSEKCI

In the first test the target is T1, human EP4 receptor (Homo sapiens, UniProt P35408). Nature of the test: Human EP4 Scintillation Proximity Assay ([3H]-prostaglandin E2 radioligand binding). On the set-up: expressed in transfected cells; host or cells: CHO cells infected with Semliki Forest Virus (SFV-1) particles; membranes. The following applies: membranes of CHO cells expressing human EP4 receptor; 1.25 nM [3H]-prostaglandin E2; pKi from IC50 by Cheng-Prusoff; read-out: pKi at EP4 receptors (converted). The source says:
Quantification of radioligand binding by scintillation proximity assay (SPA) is a long-established principle. Briefly, the affinity of compounds for a receptor is assesssed by the specific competition between known quantities of radiolabelled ligand and compound for that receptor. Increasing concentrations of compound reduce the amount of radiolabel that binds to the receptor. This gives rise to a diminshing scintillation signal from SPA beads coated with membranes that bear the receptor. The signal may be detected with a suitable scintillation counter and the data generated may be analysed with suitable curve-fitting software.
The human EP4 SPA assay (hereafter referred to as ‘the assay’) utilises membranes prepared from Chinese Hamster Ovary (CHO cells) infected with Semilki Forest Virus (SFV). Genetically engineered SFV-1 viral particles containing the genetic sequence of the human EP4 receptor were used to infect CHO cells resulting in expression of the receptor protein in cellular membranes. Cells washed free of media are homogenised in a pH-buffered medium containing peptidase inhibitors. A suitable buffer is of the following composition: 50 mM HEPES, 1 mM EDTA, 25 μg/ml bacitracin, 100 μM leupeptin, 1 mM PMSF, 2 μM Pepstatin A, pH adjusted to 7.4 with KOH. Following removal of cell debris by a low-speed centrifugation, a pellet of membranes is prepared by a high-speed (48000 g) centrifugation of the resulting supernatant. Membrane suspensions such as that described may be stored at −80° C. until used.
For assay, membranes expressing human EP4 receptors are diluted in a pH-buffered medium and mixed with SPA beads coated with a suitable substance to facilitate the adhesion of membranes to the beads. The concentrations of membrane protein and SPA beads chosen should result in SPA binding signal of at least 300 corrected counts per minute (CCPM) when tritiated radioligand at a concentration close to its Kd (affinity value) is combined with the mixture. Non-specific binding (nsb) may be determined by competition between the radiolabelled ligand and a saturating concentration of unlabelled ligand. In order to quantify the affinity of EP4 receptor ligands, compounds are diluted in a stepwise manner across the wells of a 96-well plate. Radioligand, compound, and unlabelled ligand are then added to a 96-well plate suitable for the measurement of SPA binding signals prior to the addition of bead/membrane mixture to initiate the binding reaction. Equilibrium may be achieved by incubation at room temperature for 120 minutes prior to scintillation counting. The data so generated may be analysed by means of a computerised curve-fitting routine in order to quantify the concentration of compound that displaces 50% of the specific radioligand binding (IC50). The affinity (pKi) of the compound may be calculated from the IC50 by application of the Cheng-Prusoff correction. Suitable reagents and protocols are: reaction buffer containing 50 mM HEPES, 10 mM MgCl2, pH adjusted to 7.4 with KOH; SPA beads coated with wheatgerm agglutinin; 1.25 nM [^3H]-prostaglandin E2 as radioligand; 10 μM prostaglandin E2 as unlabelled ligand; a three-fold dilution series of compound starting at 10 μM and ending at 0.3 nM is adequate.
On to `CCOc1c2c(c(OCC)c3ccccc13)C(=O)N(c1ccc(CC(=O)NS(=O)(=O)c3ccc(F)cc3)cc1)C2` [Example 1, N-{[4-(4,9-diethoxy-1-oxo-1,3-dihydro-2H-benzo[f]isoindol-2-yl)phenyl]acetyl}-4-fluorobenzenesulfonamide], for which the Ki is no more than 100 nM.

Consider `CCOc1c2c(c(OCC)c3ccccc13)C(=O)N(c1ccc(CC(=O)NS(=O)(=O)c3ccccc3)cc1)C2` [Example 3, N-{2-[4-(4,9-diethoxy-1-oxo-1,3-dihydro-2H-benzo[f]isoindol-2-yl)phenyl]acetyl}benzenesulfonamide], for which the Ki is no more than 100 nM. Still for that read-out and setting: in the case of `CCOc1c2c(c(OCC)c3ccccc13)C(=O)N(c1ccc(CC(=O)NS(=O)(=O)c3ccccc3C)cc1)C2` [Example 4] it was no more than 100 nM; in that of `CCOc1c2c(c(OCC)c3ccccc13)C(=O)N(c1ccc(CC(=O)NS(=O)(=O)c3ccc(C)cc3OC)cc1)C2` [Example 9], no more than 100 nM; in that of `CCOc1c2c(c(OCC)c3ccccc13)C(=O)N(c1ccc(CC(=O)NS(=O)(=O)c3cccc(Br)c3)cc1)C2` [Example 10], no more than 100 nM.

As for `CCOc1c2c(c(OCC)c3ccccc13)C(=O)N(c1ccc(CC(=O)NS(=O)(=O)c3cc(Br)ccc3OC)cc1)C2` [Example 12], the Ki was no more than 100 nM. Still for that read-out and setting: for `CCOc1c2c(c(OCC)c3ccccc13)C(=O)N(c1ccc(CC(=O)NS(=O)(=O)c3cccc(OC)c3)cc1)C2` [Example 13] the value was no more than 100 nM; for `CCOc1c2c(c(OCC)c3ccccc13)C(=O)N(c1ccc(CC(=O)NS(=O)(=O)c3ccccc3C)cc1)C2=O` [Example 14], no more than 100 nM; for `CCOc1c2c(c(OCC)c3ccccc13)C(=O)N(c1ccc(CC(=O)NS(=O)(=O)c3ccccc3)cc1)C2=O` [Example 15], no more than 100 nM. Still for that read-out and setting: in the case of `CCOc1c2c(c(OCC)c3ccccc13)C(=O)N(c1ccc(CC(=O)NS(=O)(=O)c3cccc(Cl)c3)cc1)C2=O` [Example 16] it was no more than 100 nM. Still for that read-out and setting: in the case of `CCOc1c2c(c(OCC)c3ccccc13)C(=O)N(c1ccc(CC(=O)NS(=O)(=O)c3cccnc3)cc1)C2` [Example 30] it was no more than 100 nM; in that of `CCOC(=O)CS(=O)(=O)NC(=O)Cc1ccc(N2Cc3c(c(OCC)c4ccccc4c3OCC)C2=O)cc1` [Example 34], no more than 100 nM; in that of `CCOc1c2c(c(OCC)c3ccccc13)C(=O)N(c1ccc(CC(=O)NS(=O)(=O)c3cccs3)cc1)C2` [Example 35], no more than 100 nM.

As for `CCOc1c2c(c(OCC)c3ccccc13)C(=O)N(c1ccc(CC(=O)NS(=O)(=O)c3ccc4ccccc4c3)cc1)C2` [Example 37], the Ki is no more than 100 nM.

For the next test, the target named is T1, human EP4 receptor. Nature of the test: [125I]cAMP Scintillation Proximity Assay (EP4 antagonist assay, HEK-293 cells expressing recombinant human EP4 receptor). The format is cell-based. On the set-up: expressed in transfected cells. The settings on record: method of Arunlakshana and Schild, read-out: pKb (antagonist affinity) (converted). The procedure: The CAMP assay utilises HEK-293 cells expressing the recombinant human EP4 receptor, obtained from Receptor Biology, Inc. Beltsville, Md., USA. The cells were cultured in Dulbecco's Modified Eagle Medium—HAM F12 mix (DMEM-F12), containing 10% heat inactivated-foetal bovine serum (FBS) and 2 mM L-glutamine. The cells were either passaged into fresh medium or used in an assay once 90% confluency as determined visually had been achieved.
The cells were harvested by treatment with Versene, re-suspended in fresh culture medium and plated out to yield approximately 10,000 cells per well of a 96-well plate for overnight culture in culture medium additionally supplemented with 3 μM indomethacin. For assay, the culture medium was replaced with assay medium (DMEM-F12 containing 300 μM isobutylmethylxanthine (IBMX) and 3 μM indomethacin) and incubated for 30 minutes. Following this, antagonist was then added at various concentrations such that an entire agonist concentration-effect curve could be obtained in the presence of a single concentration of the antagonist. […] The amount of cAMP in each well was then determined by [^125I]cAMP scintillation proximity assay using a proprietary kit, obtained from Amersham, Buckinghamshire, UK, and according to the manufacturers instructions.
Data from cAMP assays were expressed as pmol CAMP per well. […]
For the compound `CCOc1c2c(c(OCC)c3ccccc13)C(=O)N(c1ccc(CC(=O)NS(=O)(=O)c3ccc(F)cc3)cc1)C2` [Example 1, N-{[4-(4,9-diethoxy-1-oxo-1,3-dihydro-2H-benzo[f]isoindol-2-yl)phenyl]acetyl}-4-fluorobenzenesulfonamide], the Kb was no more than 100 nM.

With `CCOc1c2c(c(OCC)c3ccccc13)C(=O)N(c1ccc(CC(=O)NS(=O)(=O)c3ccccc3)cc1)C2` [Example 3, N-{2-[4-(4,9-diethoxy-1-oxo-1,3-dihydro-2H-benzo[f]isoindol-2-yl)phenyl]acetyl}benzenesulfonamide], the Kb was no more than 100 nM.
